Each structure is given as a SMILES string.

The experiment deals with replicon. The experiment is described as follows: Replicon assay. The experiment is classed as cell-based. In general terms: Replicon systems follow genome replication, usually without infectious particles.
As to `CCCN(NC(=O)[C@@H]1[C@@H]2[C@H](CN1C(=O)[C@@H](NC(=O)N[C@H](CN(C)S(C)(=O)=O)C(C)(C)C)C(C)(C)C)C2(C)C)C(=O)N[C@@H](C)c1ccccc1` [Compound 2], the IC50 – broadly, the concentration that inhibits the measured activity by half – was no more than 0.5 µM. As for `C[C@H](NC(=O)N(CC1CC1)NC(=O)[C@@H]1[C@@H]2[C@H](CN1C(=O)[C@@H](NC(=O)N[C@H](CN1C(=O)C3CCC(C3)C1=O)C(C)(C)C)C(C)(C)C)C2(C)C)c1ccccc1` [Compound 6], the figure is 0.5 to 3 µM; as for `CCCN(NC(=O)[C@@H]1[C@@H]2[C@H](CN1C(=O)[C@@H](NC(=O)N[C@H](CN1C(=O)C3CCC(C3)C1=O)C(C)(C)C)C(C)(C)C)C2(C)C)C(=O)N[C@@H](C)c1ccccc1` [Compound 5], no more than 0.5 µM; as for `CCCN(NC(=O)[C@@H]1[C@@H]2[C@H](CN1C(=O)[C@@H](NC(=O)N[C@H](CN1C(=O)CC(C)(C)CC1=O)C(C)(C)C)C(C)(C)C)C2(C)C)C(=O)N[C@@H](C)c1ccccc1` [Compound 3], no more than 0.5 µM. The compound `CCCN(NC(=O)[C@@H]1[C@@H]2[C@H](CN1C(=O)[C@@H](NC(=O)NC1(CS(=O)(=O)C(C)(C)C)CCCCC1)C1(C)CCCCC1)C2(C)C)C(=O)N[C@@H](C)c1ccccc1` [Compound 1] yielded an IC50 of 0.5 to 3 µM.

These data come from patent US20100104534A1, “HYDRAZIDO-PEPTIDES AS INHIBITORS OF HCV NS3-PROTEASE” (priority 2007, published 2010).
